Data from patent US4468511A, “C-20- And C-23-Modified macrolide derivatives” (Eli Lilly and Company, priority 1983, dated 1984).
≈ marks a conversion by molar mass, not a printed value. Like-named read-outs stand apart in the source and are kept apart here.

Assays:
[1] = system: Staphylococcus aureus S13E; assay: microbe, parasite or virus in culture; assay type: cell-based
Procedure: (§1) The MIC's in Table II were determined by standard agar-dilution assays. The MIC's in Table III were obtained using a conventional broth-dilution microtiter test.

[2] = system: Staphylococcus epidermidis EPI1; assay: microbe, parasite or virus in culture; assay type: cell-based
Procedure: as §1

[3] = system: Streptococcus pyogenes C203; assay: Protection of mice experimentally infected with S. pyogenes C203; assay type: in vivo;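 further: two doses given 1 and 4 hours after infection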
Procedure: Some of the derivatives of this invention have shown in vivo antimicrobial activity against experimentally-induced infections in laboratory animals. When two doses of test compound were administered to mice experimentally infected with S. pyogenes C203, the activity observed was measured as an ED50 value [effective dose in mg/kg to protect 50% of the test animals: see Warren Wick, et al., J. Bacteriol. 81, 233-235 (1961)].

[4] = system: Streptococcus sp. 80; assay: MIC, conventional broth-dilution microtiter test; assay type: cell-based
Procedure: (§2) Certain of the derivatives are active against some gram-negative bacteria, such as Pasteurella species. The MIC's in Table II were determined by standard agar-dilution assays. The MIC's in Table III were obtained using a conventional broth-dilution microtiter test.

[5] = system: Pasteurella hemolytica 22C; assay: MIC, conventional broth-dilution microtiter test; assay type: cell-based; conditions: broth-dilution microtiter; Pasteurella hemolytica 22C; read-out: MIC
Procedure: as §2

[6] = system: Mycoplasma gallisepticum; assay: MIC, conventional broth-dilution microtiter test; assay type: cell-based; conditions: Mycoplasmoides gallisepticum
Procedure: as §2

[7] = system: Pasteurella multocida 60A; assay: MIC, conventional broth-dilution microtiter test; assay type: cell-based
Procedure: as §2

[8] = system: Mycoplasma hyorhinis; assay: MIC, conventional broth-dilution microtiter test; assay type: cell-based
Procedure: as §2

[9] = system: Pasteurella hemolytica 41D; assay: MIC, conventional broth-dilution microtiter test; assay type: cell-based; conditions: broth-dilution microtiter; Pasteurella hemolytica 41D; read-out: MIC
Procedure: as §2

[10] = system: Pasteurella multocida 17E; assay: MIC, conventional broth-dilution microtiter test; assay type: cell-based; conditions: broth-dilution microtiter; Pasteurella multocida 17E, Bovine isolate; read-out: MIC
Procedure: as §2

[11] = system: Mycoplasma synoviae; assay: MIC, conventional broth-dilution microtiter test; assay type: cell-based; conditions: Mycoplasmopsis synoviae
Procedure: as §2

[12] = system: Mycoplasma gallisepticum 34159; assay: MIC, conventional broth-dilution microtiter test; assay type: cell-based; conditions: Mycoplasmoides gallisepticum
Procedure: as §2

[13] = system: Pasteurella multocida 68C; assay: MIC, conventional broth-dilution microtiter test; assay type: cell-based
Procedure: as §2

[14] = system: Mycoplasma gallisepticum 41313; assay: MIC, conventional broth-dilution microtiter test; assay type: cell-based; conditions: Mycoplasmoides gallisepticum
Procedure: as §2

[15] = system: Pasteurella multocida 22A; assay: MIC, conventional broth-dilution microtiter test; assay type: cell-based; conditions: broth-dilution microtiter; Pasteurella multocida 22A; read-out: MIC
Procedure: as §2

[16] = system: Pasteurella hemolytica 23C; assay: MIC, conventional broth-dilution microtiter test; assay type: cell-based; conditions: broth-dilution microtiter; Pasteurella hemolytica 23C; read-out: MIC
Procedure: as §2

[17] = system: Pasteurella multocida 40G; assay: MIC, conventional broth-dilution microtiter test; assay type: cell-based
Procedure: as §2

[18] = system: Staphylococcus aureus; assay: MIC, conventional broth-dilution microtiter test; assay type: cell-based; conditions: broth-dilution microtiter, read-out: MIC
Procedure: as §2

[19] = system: Streptococcus pyogenes 9960; assay: MIC, standard agar-dilution assay; assay type: cell-based
Procedure: as §2

[20] = system: Escherichia coli EC14; assay: MIC, standard agar-dilution assay; assay type: cell-based; conditions: agar-dilution; Escherichia coli EC14; read-out: MIC
Procedure: as §2

[21] = system: Klebsiella pneumoniae KAE; assay: MIC, standard agar-dilution assay; assay type: cell-based; conditions: agar-dilution; Klebsiella pneumoniae KAE; read-out: MIC
Procedure: as §2

[22] = system: Escherichia coli TEM; assay: MIC, standard agar-dilution assay; assay type: cell-based; conditions: agar-dilution; Escherichia coli TEM; read-out: MIC
Procedure: as §2

[23] = system: Staphylococcus aureus X1.1; assay: MIC, standard agar-dilution assay; assay type: cell-based
Procedure: as §2

[24] = system: Streptococcus pneumoniae Park I; assay: MIC, standard agar-dilution assay; assay type: cell-based
Procedure: as §2

[25] = system: Streptococcus pyogenes C203; assay: MIC, standard agar-dilution assay; assay type: cell-based
Procedure: as §2

[26] = system: Klebsiella pneumoniae X26; assay: MIC, standard agar-dilution assay; assay type: cell-based
Procedure: as §2

[27] = system: Streptococcus Group D X66; assay: MIC, standard agar-dilution assay; assay type: cell-based
Procedure: as §2

[28] = system: Staphylococcus aureus V41; assay: MIC, standard agar-dilution assay; assay type: cell-based
Procedure: as §2

[29] = system: Staphylococcus aureus X400; assay: MIC, standard agar-dilution assay; assay type: cell-based
Procedure: as §1

[30] = system: Haemophilus influenzae C.L.; assay: MIC, standard agar-dilution assay; assay type: cell-based
Procedure: as §1

[31] = system: Staphylococcus epidermidis EPI2; assay: MIC, standard agar-dilution assay; assay type: cell-based; conditions: agar-dilution; Staphylococcus epidermidis EPI2; read-out: MIC
Procedure: as §1

[32] = system: Haemophilus influenzae 76; assay: MIC, standard agar-dilution assay; assay type: cell-based; conditions: agar-dilution; Haemophilus influenzae 76, Ampicillin-resistant strain; read-out: MIC
Procedure: as §1

[33] = agar-dilution, Staphylococcus epidermidis EPI1, read-out: MIC
[34] = broth-dilution microtiter, Streptococcus sp. 80, read-out: MIC
[35] = broth-dilution microtiter, Mycoplasma gallisepticum, read-out: MIC
[36] = broth-dilution microtiter, Mycoplasma hyorhinis, read-out: MIC
[37] = broth-dilution microtiter, Mycoplasma gallisepticum 34159, Resistant strain, read-out: MIC
[38] = broth-dilution microtiter, Mycoplasma gallisepticum 41313, Resistant strain, read-out: MIC
[39] = agar-dilution, Staphylococcus aureus V41, Penicillin-resistant strain, read-out: MIC
[40] = broth-dilution microtiter, Pasteurella multocida 60A, Avian isolate, read-out: MIC
[41] = broth-dilution microtiter, Pasteurella multocida 68C, read-out: MIC
[42] = broth-dilution microtiter, Pasteurella multocida 40G, read-out: MIC
[43] = agar-dilution, Streptococcus 9960, read-out: MIC
[44] = agar-dilution, Streptococcus pneumoniae Park I, read-out: MIC
[45] = agar-dilution, Klebsiella pneumoniae X26, read-out: MIC
[46] = agar-dilution, Streptococcus Group D X66, read-out: MIC
[47] = agar-dilution, Haemophilus influenzae C.L., Ampicillin-sensitive strain, read-out: MIC

For CCC1OC(=O)CC(O)C(C)C(OC2OC(C)C(OC3CC(C)(O)C(O)C(C)O3)C(N(C)C)C2O)C(CCNCc2ccccc2)CC(C)C(=O)C=CC(C)=CC1C (centres unmarked) [Compound 25, 20-N-Benzylamino-20-deoxy-20-dihydro-DMOT], the MIC [1] was 8 µg/mL (≈ 9.79 µM), the MIC [2, 33] was 4 µg/mL (≈ 4.9 µM) and the ED50 ([3]; C203, po, read-out: ED50 Oral) was > 100 mg/kg. The ED50 ([3]; C203, sc, read-out: ED50 Subcutaneous) was > 25 mg/kg, the MIC [4, 34] was 6.25 µg/mL (≈ 7.65 µM) and the MIC [5] was > 50 µg/mL. For the same molecule, the MIC [6, 35] was 1.56 µg/mL (≈ 1.91 µM), the MIC ([7]; Pasteurella multocida, 60A) was 50 µg/mL (≈ 61.2 µM) and the MIC [8, 36] was > 50 µg/mL. For the same molecule, the MIC [9] was > 50 µg/mL, the MIC [10] was > 50 µg/mL and the MIC [11] was 50 µg/mL (≈ 61.2 µM). For the same molecule, the MIC [12, 37] was > 50 µg/mL, the MIC ([13]; Pasteurella multocida, 68C) was 50 µg/mL (≈ 61.2 µM) and the MIC [14, 38] was > 50 µg/mL. The MIC [15] was > 50 µg/mL, the MIC [16] was > 50 µg/mL and the MIC ([17]; Pasteurella multocida, 40G) was 50 µg/mL (≈ 61.2 µM). For the same molecule, the MIC [18] was 12.5 µg/mL (≈ 15.3 µM), the MIC [19]; 9960 was 8 µg/mL (≈ 9.79 µM) and the MIC [20] was > 128 µg/mL. The MIC [21] was > 128 µg/mL, the MIC [22] was > 128 µg/mL and the MIC ([23]; agar-dilution, Staphylococcus aureus X1.1, read-out: MIC) was 4 µg/mL (≈ 4.9 µM). For the same molecule, the MIC ([24]; Streptococcus pneumoniae) was 1 µg/mL (≈ 1.22 µM), the MIC ([25]; Streptococcus pyogenes, C203) was 2 µg/mL (≈ 2.45 µM) and the MIC ([26]; Klebsiella pneumoniae, X26) was 64 µg/mL (≈ 78.3 µM). It also gave an MIC [27] of 8 µg/mL (≈ 9.79 µM), an MIC [28, 39] of 4 µg/mL (≈ 4.9 µM) and an MIC ([29]; agar-dilution, Staphylococcus aureus X400, Methicillin-resistant strain, read-out: MIC) of 4 µg/mL (≈ 4.9 µM). The MIC ([30]; Haemophilus influenzae) was 64 µg/mL (≈ 78.3 µM) and the MIC [31] was 4 µg/mL (≈ 4.9 µM).
With CCC1OC(=O)CC(O)C(C)C(OC2OC(C)C(OC3CC(C)(O)C(O)C(C)O3)C(N(C)C)C2O)C(CCN2C(=O)c3ccccc3C2=O)CC(C)C(=O)C=CC(C)=CC1C (centres unmarked) [Compound 26, 20-N-Phthalimido-20-deoxy-20-dihydro-DMOT] the MIC [1] was 64 µg/mL (≈ 74.7 µM), the MIC [2, 33] was 64 µg/mL (≈ 74.7 µM) and the MIC [4, 34] was > 50 µg/mL. The MIC [5] was > 50 µg/mL, the MIC [6, 35] was 12.5 µg/mL (≈ 14.6 µM) and the MIC [7, 40] was > 50 µg/mL. For the same molecule, the MIC [8, 36] was 50 µg/mL (≈ 58.3 µM), the MIC [9] was > 50 µg/mL and the MIC [10] was > 50 µg/mL. For the same molecule, the MIC [12, 37] was 50 µg/mL (≈ 58.3 µM), the MIC [13, 41] was > 50 µg/mL and the MIC [14, 38] was 50 µg/mL (≈ 58.3 µM). For the same molecule, the MIC [15] was > 50 µg/mL, the MIC [16] was > 50 µg/mL and the MIC [17, 42] was > 50 µg/mL. For the same molecule, the MIC [18] was > 50 µg/mL, the MIC [19, 43] was > 128 µg/mL and the MIC [20] was > 128 µg/mL. For the same molecule, the MIC [21] was > 128 µg/mL, the MIC [22] was > 128 µg/mL and the MIC ([23]; Staphylococcus aureus, X1.1) was 64 µg/mL (≈ 74.7 µM). For the same molecule, the MIC [24, 44] was 8 µg/mL (≈ 9.33 µM), the MIC ([25]; Streptococcus pyogenes, C203) was 64 µg/mL (≈ 74.7 µM) and the MIC [26, 45] was > 128 µg/mL. The MIC [27, 46] was 128 µg/mL (≈ 149 µM), the MIC ([28]; Staphylococcus aureus, V41) was 32 µg/mL (≈ 37.3 µM) and the MIC [32] was > 128 µg/mL. For the same molecule, the MIC ([29]; Staphylococcus aureus, X400) was 64 µg/mL (≈ 74.7 µM), the MIC [30, 47] was > 128 µg/mL and the MIC [31] was 32 µg/mL (≈ 37.3 µM).
CCC1OC(=O)CC(O)C(C)C(OC2OC(C)C(OC3CC(C)(O)C(O)C(C)O3)C(N(C)C)C2O)C(CCN2C(=O)c3ccccc3C2=O)CC(C)C(=O)C=CC(C)=CC1CN1C(=O)c2ccccc2C1=O (centres unmarked) [Compound 38, 20,23-Di-N-phthalimido-20,23-dideoxy-20-dihydro-DMT] showed an MIC [1] of 32 µg/mL (≈ 31.9 µM), an MIC ([2]; Staphylococcus epidermidis, EPI1) of 32 µg/mL (≈ 31.9 µM) and an MIC ([4]; Streptococcus, SP.80) of 50 µg/mL (≈ 49.9 µM). For the same molecule, the MIC [5] was > 50 µg/mL, the MIC [6] was 50 µg/mL (≈ 49.9 µM) and the MIC [7, 40] was > 50 µg/mL. For the same molecule, the MIC ([8]; Mycoplasma) was 50 µg/mL (≈ 49.9 µM), the MIC [9] was > 50 µg/mL and the MIC [10] was > 50 µg/mL. The MIC [12]; 34159 was 50 µg/mL (≈ 49.9 µM), the MIC [13, 41] was > 50 µg/mL and the MIC [14]; 41313 was 50 µg/mL (≈ 49.9 µM). For the same molecule, the MIC [15] was > 50 µg/mL, the MIC [16] was > 50 µg/mL and the MIC [17, 42] was > 50 µg/mL. For the same molecule, the MIC [18] was 25 µg/mL (≈ 24.9 µM), the MIC [19, 43] was > 128 µg/mL and the MIC [20] was > 128 µg/mL. For the same molecule, the MIC [21] was > 128 µg/mL, the MIC [22] was > 128 µg/mL and the MIC ([23]; Staphylococcus aureus, X1.1) was 64 µg/mL (≈ 63.9 µM). For the same molecule, the MIC [24, 44] was 16 µg/mL (≈ 16 µM), the MIC ([25]; agar-dilution, Streptococcus pyogenes C203, read-out: MIC) was > 128 µg/mL and the MIC [26, 45] was > 128 µg/mL. For the same molecule, the MIC [27, 46] was > 128 µg/mL, the MIC [28, 39] was 16 µg/mL (≈ 16 µM) and the MIC [32] was > 128 µg/mL. The MIC ([29]; Staphylococcus aureus, X400) was 64 µg/mL (≈ 63.9 µM), the MIC [30, 47] was > 128 µg/mL and the MIC [31] was 16 µg/mL (≈ 16 µM).
